The values below come from article PMC12040169 (PLOS Biology, 2025).

The nature of the series: in vitro. To be noted: human, hela cells, % viability.

Consider `COCCNC(=O)C1CCN(c2nc3c(-c4ccccc4F)csc3c(=O)[nH]2)CC1` [CBK215434], for which the viability at 28.5 h, 10 µM was 92.6%.
`O=C(NCC1COc2ccccc2O1)C1(c2ccccc2)CCCC1` (stereo not drawn) [CBK149524]: the viability at 28.5 h, 10 µM is 93.8%.
In the case of `Cn1cnc([N+](=O)[O-])c1Oc1cccc(C(F)(F)F)c1` [CBK002790], the viability at 28.5 h, 10 µM was determined as 87%.
As to `CCOC(=O)C1(c2ccccc2)CCN(C(=O)C2COc3ccccc3O2)CC1` (stereo not drawn) [CBK132178], the viability at 28.5 h, 10 µM (bulk resorufin, single well) came out at 93.3%.
With `O=C(O)CC(NCc1ccccc1)C(=O)Nc1ccccc1Br` (stereo not drawn) [CBK267118], the viability at 28.5 h, 10 µM was determined as 98%.
Consider `CCNc1nc(-c2ccc(SCC)cc2)cn2ccnc12` [CBK066489], for which the viability at 28.5 h, 10 µM was found to be 114%.
On to `CCNC(=O)N1CC2(CCN(CC3COc4ccccc4O3)CC2)c2ccccc21` (stereo not drawn) [CBK143944], for which the viability at 28.5 h, 10 µM came to 102%.
For `O=C(c1ccc(Oc2ccccc2)cc1)N1CCC2(CCN(Cc3ccccc3)C2)C1` (stereo not drawn) [CBK136833], the viability at 28.5 h, 10 µM turned out to be 99.3%.
Take `COc1ccccc1OCC(=O)NCc1ccc(-c2csnn2)cc1` [CBK149303]: the viability at 28.5 h, 10 µM was determined as 99.5%.
Take `Cc1oc2[nH]c(CN(C)CCOc3ccc(Cl)cc3)nc(=N)c2c1C(=O)O` [CBK279463]: the viability at 28.5 h, 10 µM was determined as 102%.
The same measure, in the same setting: as for `CC(C)Oc1ccc(C(=O)C2=C(O)C(=O)N(CCN(C)C)C2c2ccccc2F)cc1` (stereo not drawn) [CBK264886], the figure is 102%; as for `O=C1CCCN1CCCNc1nccnc1-c1ccncc1` [CBK036832], 106%; as for `COc1cccc(NC(=O)CSc2ccc(Cl)cc2)c1` [CBK263811], 85.6%.
Regarding `COc1cc(S(=O)(=O)NC2CC(C)(C)NC(C)(C)C2)ccc1F` [CBK266561], the viability at 28.5 h, 10 µM was found to be 92%.
As for `COC(=O)CN1C(=O)N2CCCN=C2c2ccc(Cl)cc21` [CBK284402], the viability at 28.5 h, 10 µM turned out to be 89.8%.
Turning to `Cc1cc(NC(=O)Cc2ccccc2)nc2c1c(=O)oc1ccccc12` [CBK291127], the viability at 28.5 h, 10 µM was 102%.
Take `Cc1ccc(-c2cccc(N3CCN(CCN4CCCC4)CC3)n2)cc1C` [CBK037799]: the viability at 28.5 h, 10 µM worked out at 113%.
Turning to `O=C(O)CCSc1cccc(C(F)(F)F)c1` [CBK012986], the viability at 28.5 h, 10 µM is 111%.
`Cc1c(C(=O)O)[nH]c2c1C(=O)CCC2` [CBK015548]: the viability at 28.5 h, 10 µM is 97.5%.
For the compound `Cc1cc(C(=O)N2CCc3c(sc4ncnc(N)c34)C2)c(C)s1` [CBK304980], the viability at 28.5 h, 10 µM was 88.5%.
`CC(COC(C)(C)C)Oc1nccnc1OCc1ccc(Cl)c(Cl)c1` (stereo not drawn) [CBK161607]: the viability at 28.5 h, 10 µM was found to be 113%.
Take `O=[N+]([O-])c1ccccc1S(=O)(=O)N1CCN(S(=O)(=O)c2ccc(F)cc2)CC1` [CBK264236]: the viability at 28.5 h, 10 µM stood at 92.7%.
As for `Cc1ncsc1C(=O)N1CCCC(c2cc3cnccc3[nH]2)C1` (stereo not drawn) [CBK283461], the viability at 28.5 h, 10 µM was 94%.
On the same count and under the same terms, as for `CC(C)N1C[C@@H](C(=O)NC(C)(C)C)[C@@]2(Cc3ccccc3C(=O)N2)C1` [CBK285295], the figure is 101%; as for `COc1ccc(CN2CCCN(S(=O)(=O)c3ccc(-c4ccccc4)cc3)CC2)cc1F` [CBK063108], 111%; as for `Cc1cc(C(=O)N2CCC(N3C(=O)OCC3(C)C)CC2)n(C(C)(C)C)n1` [CBK044233], 94.4%.
Same read-out and setting: the same measure for `Cc1ccc(Nc2cc(-c3cccc4oc5ccccc5c34)ncn2)cc1NS(C)(=O)=O` [CBK091150]: 93.6%.
On the same count and under the same terms, the same measure for `CNC(=O)c1ccc(-c2ccccc2OC)nc1N1CCOCC1` [CBK106210]: 87.4%.
Take `O=C(O)c1cccc(OCc2nnnn2-c2ccc(Br)cc2)c1` [CBK286744]: the viability at 28.5 h, 10 µM came to 82.7%.
As for `c1csc(CSc2nnc3sc4ccccc4n23)c1` [CBK266291], the viability at 28.5 h, 10 µM stood at 87.9%.
Regarding `CCCC(=O)Nc1ccc(C(=O)Nc2ccccc2C(=O)O)cc1` [CBK265111], the viability at 28.5 h, 10 µM is 121%.
`Cc1cc(C(=O)NCCc2ccc(S(N)(=O)=O)cc2)no1` [CBK268130]: the viability at 28.5 h, 10 µM turned out to be 99.3%.
In the case of `COc1ccccc1NC(=O)c1cn(Cc2ccc(N)cc2)cn1` [CBK288045], the viability at 28.5 h, 10 µM was 99.5%.
As for `COc1c(C)cccc1C(=O)N1CCCCC1c1ncc(C(=O)Nc2ccccc2)c(C)n1` (stereo not drawn) [CBK285841], the viability at 28.5 h, 10 µM was found to be 89.9%.
As for `C=C(C)CNc1ccccc1C(=O)OC` [CBK003656C], the viability at 28.5 h, 10 µM was determined as 89.1%.
As for `O=C(NC1CCCC1)c1ccc(Cl)cc1Cl` [CBK002108], the viability at 28.5 h, 10 µM was found to be 93.7%.
`CC1CCN(Cc2c(O)ccc3occ(C(=O)c4ccccc4)c23)CC1` [CBK111319]: the viability at 28.5 h, 10 µM was determined as 89.8%.
Regarding `COC(=O)c1ccc(N2CCN(Cc3nc(C)c(C)o3)C(C)C2)cc1` (stereo not drawn) [CBK304903], the viability at 28.5 h, 10 µM amounted to 105%.
Take `O=C(NCCN1CCCCC1)C1CC(=O)N(c2ccccc2F)C1` (stereo not drawn) [CBK305148]: the viability at 28.5 h, 10 µM came out at 86.8%.
Still for that read-out and setting: the same measure for `Cc1cc(S(=O)(=O)Nc2ccc(C(C)(C)C)cc2)sc1C(=O)O` [CBK297946]: 88.1%; for `CN(C)CC1CCCCN1C(=O)C1C2CCCCC21` (stereo not drawn) [CBK282087]: 97.7%.
Turning to `O=C(Cn1cnnn1)NCc1cccnc1OCC(F)(F)F` [CBK306467], the viability at 28.5 h, 10 µM was determined as 96.1%.
Consider `Cn1cccc1C(=O)OCC(=O)N1CCCCC1` [CBK305903], for which the viability at 28.5 h, 10 µM was determined as 99.5%.
Same read-out and setting: as for `NS(=O)(=O)c1ccc(NS(=O)(=O)c2ccc(NC(=O)C3CC3)cc2)cc1` [CBK264958], the figure is 103%.
Regarding `O=C(c1cncnc1)N1CCC2(CCN(C(=O)c3ccoc3)C2)C1` (stereo not drawn) [CBK131755], the viability at 28.5 h, 10 µM came to 86.2%.
As for `COc1ccc(-c2nnc3c4ccccc4c(C)nn23)cc1S(=O)(=O)N1CCCCC1` [CBK266640], the viability at 28.5 h, 10 µM was 110%.
Same read-out and setting: as for `CN1CCC[C@@H]2[C@H]1[C@@H](c1ccc(F)cc1)CN2C(=O)c1ccccn1` [CBK283081], the figure is 103%; as for `O=C(O)c1cccc(NS(=O)(=O)CC(F)(F)F)c1` [CBK155712], 94.3%.
On the same count and under the same terms, the same measure for `CCc1cccc2c1Sc1ccccc1CC2N1CCN(C)CC1` (stereo not drawn) [CBK026248G]: 103%; for `Cc1cc(C)cc(NC(=O)c2ccc(CSc3nnc(N)s3)cc2)c1` [CBK266609]: 85.5%; for `COc1cc(-c2nccnc2N2CCCN(C)CC2)cc(OC)c1OC` [CBK037994]: 97.8%.
Same read-out and setting: as for `Cc1ccccc1-c1csc2c(=O)[nH]c(N3CCC4(CC3)OCCO4)nc12` [CBK291141], the figure is 96.9%; as for `CCCc1[nH]nc(O)c1Cc1ccccc1-c1ccccc1` [CBK075034], 97.2%; as for `CN1CCN(C(=O)Nc2ccc(Cc3ccc(NC(=O)N4CCN(C)CC4)cc3)cc2)CC1` [CBK264852], 104%.
Consider `CN(C)CCC1OC(=O)N(c2ccccc2)C1=O` (stereo not drawn) [CBK010134C], for which the viability at 28.5 h, 10 µM stood at 107%.
Turning to `Cc1csc(NC(=O)C2CC(=O)N(C3CCCC3)C2)n1` (stereo not drawn) [CBK175501], the viability at 28.5 h, 10 µM amounted to 107%.
For `Cc1nc2ccc(C(=O)N(C)CCN(C)C)cn2c1N(C)Cc1cccs1` [CBK146083], the viability at 28.5 h, 10 µM was 102%.
Consider `CC(C(=O)O)N1C(=O)c2ccccc2C1c1c[nH]c2ccccc12` (stereo not drawn) [CBK286576], for which the viability at 28.5 h, 10 µM was found to be 106%.
Regarding `OC(CNCCc1cccnc1)COc1cccc2c1CCCC2` (stereo not drawn) [CBK002237], the viability at 28.5 h, 10 µM is 106%.
Take `CSc1cccc(-c2cnccc2-n2ccnc2)c1` [CBK177155]: the viability at 28.5 h, 10 µM was determined as 92.5%.
In the case of `CN1CCCN(c2cnn(Cc3ccc(Cl)s3)c(=O)c2)CC1` [CBK307123], the viability at 28.5 h, 10 µM came out at 90.8%.
Consider `O=C(Nc1ccncc1)c1ccc2nc[nH]c2c1` [CBK269034], for which the viability at 28.5 h, 10 µM was 93.2%.
As for `O=C(Cn1c(-c2cccs2)cc2cccnc21)NCc1ccncc1` [CBK282456], the viability at 28.5 h, 10 µM came to 104%.
For `O=C(Nc1ccc(Cl)c(Cl)c1)Nc1ccccc1C(=O)O` [CBK263344], the viability at 28.5 h, 10 µM is 82%.
For `O=c1[nH]c2n[nH]c(=O)n2c2c(-c3ccccc3)c[nH]c12` [CBK288054], the viability at 28.5 h, 10 µM stood at 84.2%.
For `COc1ccc(Cl)cc1NC(=O)COc1cccc2ccccc12` [CBK262995], the viability at 28.5 h, 10 µM came out at 94.9%.
Still for that read-out and setting: as for `CCC(C)c1csc(C2CN3CCCC3CO2)n1` (stereo not drawn) [CBK304805], the figure is 81.5%; as for `CC(=O)C(C)n1c(CN2CCCC(C)C2)nc2c1c(=O)n(C)c(=O)n2C` (stereo not drawn) [CBK306061], 88.2%.
For `CC(Oc1cccc(Br)c1)c1nc(-c2ccc(-n3cccc3)cc2)no1` (stereo not drawn) [CBK293986], the viability at 28.5 h, 10 µM was 102%.
Regarding `C=CCNC(=O)[C@H]1C=CCN1C(=O)Nc1ccccc1Cl` [CBK282348], the viability at 28.5 h, 10 µM turned out to be 99%.
As to `CC(O)c1ccc(-c2ccc(CNCCCN3CCOCC3)o2)cc1` (stereo not drawn) [CBK278178C], the viability at 28.5 h, 10 µM turned out to be 95.4%.
On to `COc1ccc([C@@]23CC[C@@H](NC(=O)Nc4ccc5c(c4)OC(F)(F)O5)C[C@@H]2N(C)CC3)cc1OC` [CBK073743T], for which the viability at 28.5 h, 10 µM came to 88.8%.
Still for that read-out and setting: the same measure for `CCOC(=O)c1nnc(-c2cccs2)nc1NC1CCCCC1` [CBK018110]: 86.8%; for `CCCc1[nH]nc(O)c1C(=O)c1c(F)cccc1Cl` [CBK103524]: 103%; for `COc1ccc(CC(=O)N2CCCC(c3cc4ncccc4[nH]3)C2)cc1` (stereo not drawn) [CBK283418]: 94.5%.
As to `COc1nccnc1N1CCN(Cc2ccc([N+](=O)[O-])cc2)CC1` [CBK084217], the viability at 28.5 h, 10 µM turned out to be 103%.
Regarding `O=C(O)c1cccc2c1C(=O)N(Cc1c(F)cccc1Cl)C2` [CBK291201], the viability at 28.5 h, 10 µM stood at 111%.
For `CCOc1cccc(CNc2ccc(O)cc2)c1OCc1ccccc1Cl` [CBK074473], the viability at 28.5 h, 10 µM was 87.7%.
Regarding `CN1CC(=O)N2CCOC(C2)c2cccc(n2)NC(=O)C/C=C/CC2(CCN(Cc3ncc[nH]3)CC2)C1=O` (stereo not drawn) [CBK292196], the viability at 28.5 h, 10 µM came out at 103%.
For `O=S(=O)(Nc1ccccc1)c1ccccc1I` [CBK057566], the viability at 28.5 h, 10 µM was found to be 92.5%.
Regarding `Cc1ccc(S(=O)(=O)Nc2cc(C)on2)cc1` [CBK261119], the viability at 28.5 h, 10 µM amounted to 93.7%.
